Assay [1] concerns Trypanosoma evansi. The assay can be described thus: Antimicrobial activity against Trypanosoma evansi STIB 806K infected in NMRI mouse assessed as host survival days at 0.5 mg/kg, ip administered 3 to 6 days after infection for 4 consecutive days. The following applies: route intraperitoneal. It counts as functional.
The test system of assay [2] is Trypanosoma evansi. The assay can be described thus: Antimicrobial activity against Trypanosoma evansi STIB 806K infected in NMRI mouse assessed as complete cure from microbial infection at 0.5 mg/kg, ip administered 3 to 6 days after infection for 4 consecutive days. It counts as functional, organism-based. More on the design: dose 0.5 mg/kg.
In assay [3] the test system is Trypanosoma evansi. As to the kind of experiment: Antimicrobial activity against Trypanosoma evansi STIB 806K infected in NMRI mouse assessed as host survival days at 2 mg/kg, ip administered 3 to 6 days after infection for 4 consecutive days. It counts as functional. The note with it: route intraperitoneal.
For assay [4], the system named is Trypanosoma evansi. The assay can be described thus: Antimicrobial activity against Trypanosoma evansi STIB 806K infected in NMRI mouse assessed as complete cure from microbial infection at 2 mg/kg, ip administered 3 to 6 days after infection for 4 consecutive days. It counts as functional, organism-based. Also noted: dose 2 mg/kg.
The test system of assay [5] is Trypanosoma evansi. As to the kind of experiment: Antimicrobial activity against Trypanosoma evansi STIB 806K infected in NMRI mouse assessed as host survival days at 0.125 mg/kg, ip administered 3 to 6 days after infection for 4 consecutive days. Format: functional. The following applies: route intraperitoneal.
In assay [6] the test system is Trypanosoma evansi. The assay can be described thus: Antimicrobial activity against Trypanosoma evansi STIB 806K infected in NMRI mouse assessed as host survival days at 0.25 mg/kg, ip administered 3 to 6 days after infection for 4 consecutive days. It counts as functional. The note with it: route intraperitoneal.
Assay [7] has as its system Trypanosoma evansi. As to the kind of experiment: Antimicrobial activity against Trypanosoma evansi STIB 806K infected in NMRI mouse assessed as host survival days at 0.0625 mg/kg, ip administered 3 to 6 days after infection for 4 consecutive days. It counts as functional. The note with it: route intraperitoneal.
Assay [8] relates to Trypanosoma evansi. The assay can be described thus: Antimicrobial activity against Trypanosoma evansi STIB 806K infected in NMRI mouse assessed as complete cure from microbial infection at 0.25 mg/kg, ip administered 3 to 6 days after infection for 4 consecutive days. Format: functional, organism-based. More on the design: dose 0.25 mg/kg.
In assay [9] the test system is Trypanosoma evansi. As to the kind of experiment: Antimicrobial activity against Trypanosoma evansi STIB 806K infected in NMRI mouse assessed as complete cure from microbial infection at 0.20 mg/kg, ip administered 3 to 6 days after infection for 4 consecutive days. It counts as functional, organism-based. Also noted: dose 0.2 mg/kg.
The subject of assay [10] is Trypanosoma evansi. The assay can be described thus: Antimicrobial activity against Trypanosoma evansi STIB 806K infected in NMRI mouse assessed as host survival days at 0.20 mg/kg, ip administered 3 to 6 days after infection for 4 consecutive days. It counts as functional. The following applies: dose 0.2 mg/kg; route intraperitoneal.
Assay [11] deals with Trypanosoma evansi. As to the kind of experiment: Antimicrobial activity against Trypanosoma evansi STIB 806K infected in NMRI mouse assessed as host survival days at 1 mg/kg, ip administered 3 to 6 days after infection for 4 consecutive days. Format: functional. The note with it: route intraperitoneal.
For assay [12], the system named is Trypanosoma evansi. As to the kind of experiment: Antimicrobial activity against Trypanosoma evansi STIB 806K infected in NMRI mouse assessed as complete cure from microbial infection at 0.2 mg/kg, ip administered 3 to 6 days after infection for 4 consecutive days. Format: functional, organism-based. More on the design: dose 0.2 mg/kg.
Assay [13] deals with Trypanosoma evansi. As to the kind of experiment: Antimicrobial activity against Trypanosoma evansi STIB 806K infected in NMRI mouse assessed as host survival days at 0.2 mg/kg, ip administered 3 to 6 days after infection for 4 consecutive days. It counts as functional. The note with it: route intraperitoneal.
Assay [14] relates to Trypanosoma evansi. As to the kind of experiment: Antimicrobial activity against Trypanosoma evansi STIB 806K infected in NMRI mouse assessed as complete cure from microbial infection at 0.125 mg/kg, ip administered 3 to 6 days after infection for 4 consecutive days. Format: functional, organism-based. Also noted: dose 0.125 mg/kg.
Assay [15] deals with Trypanosoma evansi. As to the kind of experiment: Antimicrobial activity against Trypanosoma evansi STIB 806K infected in NMRI mouse assessed as complete cure from microbial infection at 0.0625 mg/kg, ip administered 3 to 6 days after infection for 4 consecutive days. It counts as functional, organism-based. Also noted: dose 0.0625 mg/kg.
In assay [16] the test system is Trypanosoma evansi. The assay can be described thus: Antimicrobial activity against Trypanosoma evansi STIB 806K infected in NMRI mouse assessed as host survival days at 0.03125 mg/kg, ip administered 3 to 6 days after infection for 4 consecutive days. Format: functional. The following applies: route intraperitoneal.
In assay [17] the test system is Trypanosoma evansi. As to the kind of experiment: Antimicrobial activity against Trypanosoma evansi STIB 806K infected in NMRI mouse assessed as complete cure from microbial infection at 1 mg/kg, ip administered 3 to 6 days after infection for 4 consecutive days. Format: functional, organism-based. More on the design: dose 1 mg/kg.

The structures appear in SMILES notation. Active and inactive are the calls of the source. No cut-off for these calls is given here.

Turning to `N=C(N)c1cccc(-c2ccc(-c3nc4cc(C(=N)N)ccc4[nH]3)cc2)c1`, in [1], the Survival worked out at 12 days. The outcome in assay [2] was inactive.

In the case of `COc1cc(C(=N)N)ccc1OCCCOc1ccc(C(=N)N)cc1OC`, the Survival in assay [3] is 29 days.

Regarding `CNC(=N)Nc1ccc(-c2ccc(-c3ccc(NC(=N)NC)cc3)cc2)cc1`, the Survival in assay [1] amounted to 13 days. For the same molecule, the result in [2] was inactive.

Regarding `Cc1cc(C(=N)N)ccc1-c1cc2cc(C(=N)N)ccc2[nH]1`, the outcome in [4] and in [2] was Active. Further, the Survival is 60 days in [3], 29 days in assay [5], 60 days in assay [1] and 51 days in assay [6].

For `N=C(N)c1ccc(-c2ccc(-c3nc4cc(C(=N)N)ccc4o3)o2)cc1`, in [4], the outcome was inactive. Moreover, in [3], the Survival worked out at 23 days.

`N=C(N)c1ccc(-c2cccc(-c3ccc(C(=N)N)cc3)n2)cc1`: the Survival in assay [1] was 16 days. For the same molecule, the result in assay [2] was inactive.

Turning to `Cn1c(-c2ccc(C(=N)N)cc2)ccc1-c1ccc(C(=N)N)cc1`, the Survival in assay [3] was 49 days.

As to `N=C(N)c1ccc(-c2coc(-c3ccc(C(=N)N)cc3)c2)cc1`, the outcome in assay [4] was Active. The values for the Survival in assay [3], in assay [1] and in [6] were 60 days, 57 days and 41 days, respectively.

`N=C(N)c1ccc(-c2cc(-c3ccc(C(=N)N)cc3)on2)cc1`: in assay [4], the result was Active. Further, the Survival in assay [3] is 60 days; in assay [1], 29 days.

For `N=C(N)c1ccc(-c2ccc(-c3ccc(C(=N)N)cc3F)o2)c(F)c1`, in assay [1], the Survival worked out at 43 days.

For `N=C(N)c1ccc(-c2cccc(-c3nc4ccc(C(=N)N)cc4[nH]3)c2)nc1`, the outcome in assay [4] was inactive. In addition, in [3], the Survival is 18 days.

As for `N=C(N)c1ccc(-c2ccc(-c3ccc(C(=N)N)cc3)o2)cc1` [FURAMIDINE], the Survival in assay [5] was 55 days; in assay [7], 29 days; in [6] it was 60 days; in assay [10] it was 60 days. The result in assay [8] and in assay [9] was Active.

In the case of `N=C(N)c1ccc(-c2ccc(-c3ccc(C(=N)N)o3)cn2)cc1`, in assay [3], the Survival worked out at 28 days.

Take `Cc1cc(C(=N)N)cn2cc(-c3ccc(-c4ccc(C(=N)N)cc4)o3)nc12`: the result in assay [4] was inactive. Also, the Survival in assay [3] turned out to be 13 days.

As for `N=C(N)c1ccc(/N=N/Nc2ccc(C(=N)N)cc2)cc1` [DIMINAZENE], in assay [4], the result was Active. Further, the Survival in [3] was 60 days; in assay [11], 44 days; in [13] it was 9 days. For the same molecule, in assay [12], the outcome was inactive.

In the case of `CNC(=N)c1ccc(OCCCCCOc2ccc(C(=N)NC)cc2)cc1`, the result in assay [4] was inactive. Also, the Survival in assay [3] turned out to be 29 days.

Take `COc1cc(-c2ccc(C(=N)N)cc2)c(OC)cc1-c1ccc(C(=N)N)cc1`: in assay [1], the Survival came to 7 days. Further, the result in [2] was inactive.

Consider `N=C(N)c1ccc(-c2ccc(-c3ccc(C(=N)N)cn3)o2)cc1`, for which the Survival came out at 50 days in assay [5], 60 days in [1] and 60 days in [6]. The outcome in [8] and in assay [2] was Active.

Consider `N=C(N)c1ccc(-c2ccc(-c3ccc4ccc(C(=N)N)cc4c3)o2)cc1`, for which, in assay [1], the Survival amounted to 15 days. Further, in [2], the result was inactive.

For `Cn1c(-c2ccc(C(=N)N)nc2)ccc1-c1ccc(C(=N)N)nc1`, in [1], the Survival was 34 days.

`Cc1cc(C(=N)N)ccc1-c1ccc(-c2nc3ccc(C(=N)N)cc3[nH]2)o1`: in [1], the Survival came out at 16 days. The result in [2] was inactive.

Take `NCCS[As](SCCN)c1ccc(Nc2nc(N)nc(N)n2)cc1`: the result in [14] and in assay [15] was Active. Moreover, the results for the Survival in [5], in [7] and in assay [16] were 60 days, 60 days and 37 days, respectively.

Regarding `COc1cc(C(=N)N)ccc1-c1ccnc(-c2ccc(C(=N)N)cc2)n1`, the Survival in [1] is 15 days. Moreover, in assay [2], the outcome was inactive.

In the case of `N=C(N)c1ccc(-c2ccc(-c3ccc(C(=N)N)cc3O)o2)cc1`, the result in [4] and in [2] was Active. Also, the Survival in [3] turned out to be 60 days; in assay [5], 32 days; in assay [1], 60 days; in assay [6] it was 38 days.

In the case of `N=C(N)c1ccc(-c2csc(-c3ccc(C(=N)N)cc3)n2)cc1`, the Survival in assay [3] was 53 days.

Take `N=C(N)c1ccc(-c2ccc(-c3cn4cc(C(=N)N)ccc4n3)cc2)cc1`: the Survival in assay [3] came out at 35 days; in assay [13] it was 12 days. Besides, in assay [12], the outcome was inactive.

For the molecule `Cc1ccc(C(=O)Nc2ccc(S(=O)(=O)O)c3cc(S(=O)(=O)O)cc(S(=O)(=O)O)c23)cc1NC(=O)c1cccc(NC(=O)Nc2cccc(C(=O)Nc3cc(C(=O)Nc4ccc(S(=O)(=O)O)c5cc(S(=O)(=O)O)cc(S(=O)(=O)O)c45)ccc3C)c2)c1` [SURAMIN], the results for the Survival in assay [11], in [1] and in assay [6] were 60 days, 51 days and 11 days, respectively. In assay [17], the result was Active. Also, the result in [8] was inactive.

Consider `Cc1cc(=N)c2ccc(Nc3cc(C)[n+](C)c(N)n3)cc2n1C.O=S(=O)([O-])O` [QUINAPYRAMINE SULFATE], for which the Survival in assay [11] was 60 days; in [1], 57 days; in assay [6], 41 days. For the same molecule, the outcome in [17] was Active.

Take `N=C(N)c1ccc(-c2ccc(-c3ccc(C(=N)N)nc3)o2)cc1`: the outcome in [4] and in [2] was Active. The Survival in [3] was found to be 60 days; in assay [5], 46 days; in assay [1] it was 60 days; in assay [6], 54 days.

As to `c1cc(-c2cc3cc(C4=NCCN4)ccc3[nH]2)ccc1C1=NCCN1`, the Survival in assay [3] is 39 days.

Turning to `N=C(N)c1ccc2nc(-c3ccc(-c4ccc(C(=N)N)c(F)c4)o3)[nH]c2c1`, the Survival in [1] came out at 27 days. Also, in assay [2], the outcome was inactive.

`Cc1cc(C2=NCCN2)ccc1-c1cc2cc(C3=NCCN3)ccc2[nH]1`: the Survival in assay [1] stood at 7 days. Moreover, the result in assay [2] was inactive.

In the case of `N=C(N)c1ccc(-c2ccc(-c3ccc(C(=N)N)nc3)o2)nc1`, the result in [4] and in assay [2] was Active. Moreover, the Survival worked out at 60 days in [3], 23 days in [5], 60 days in assay [1] and 46 days in [6].

These data come from ChEMBL document CHEMBL1649292, “In vivo investigations of selected diamidine compounds against Trypanosoma evansi using a mouse model” (2009).
